Measured values: patent US6716858B1, “Methods for inhibiting diabetic complications” (Kansas University Medical Center, priority 1995, dated 2004)

Tested on: streptozotocin-induced diabetic rat
Assay: STZ diabetic rat model, AGEs and crosslinking of collagen
Assay type: in vivo
Conditions: for CML, CEL or pentosidine content of kidney collagen / gain in kidney weight / FL in skin collagen, below untreated diabetic animals / decrease of CML, CEL and fluorescence content of skin collagen toward non-diabetic levels / reduction of half-time for digestion of collagen toward normal / body weight / CML concentration in skin collagen / half-time for pepsin digestion of skin collagen / CEL in renal basement membrane collagen / CML in renal basement membrane collagen / Pentosidine in renal basement membrane collagen: diabetic rats; for FL in skin collagen, below untreated diabetic animals: 1 g/L in drinking water, week 28; for decrease of CML, CEL and fluorescence content of skin collagen toward non-diabetic levels / reduction of half-time for digestion of collagen toward normal: 7 months of diabetes; for body weight: 28 weeks; for CML concentration in skin collagen: drug in drinking water, end of study, untreated diabetic 0.124±0.01, non-diabetic 0.057±0.01; for half-time for pepsin digestion of skin collagen: control 90, untreated diabetic 450; for CEL in renal basement membrane collagen: untreated diabetic 0.08 ±0.01; for CML in renal basement membrane collagen: untreated diabetic 0.25 ± 0.04; for Pentosidine in renal basement membrane collagen: untreated diabetic 3.17 ± 1.10; for decrease in collagen-linked fluorescence toward values in non-diabetic rats: skin collagen
Protocol: Animal studies. Diabetes was induced by a single tail vein injection of 45 mg/kg of STZ in 0.1 M sodium citrate buffer, pH 4.5. Control animals were sham injected with buffer only. Diabetes was confirmed by measuring blood glucose levels at 2 and 3 days after the STZ-injection. Animals with plasma glucose higher than 16 mM were classified as diabetic. The diabetic rats were divided randomly into an untreated diabetic group (n=12) and two diabetic treatment groups, receiving either PM (n=13) or AG (n=12) at 1 g/L in drinking water. Two non-diabetic control groups were included, one receiving no treatment (n=13), the other receiving PM(HCl)2 at 2 g/L in drinking water (n=12); the higher dose of PM in the PM-treated control group was designed to compensate, in part, for the lower water intake of non-diabetic, compared to diabetic animals. All animals were housed individually with a light dark cycle of 12 hours each, and had free access to food and water. To maintain body weight and to limit hyperglycemia, diabetic animals received 3 IU of ultralente insulin (Humulin U, Eli Lilly) three times per week; this was increased to 5 IU after week 15 to adjust for the increase in body weight.
Glycemic control. Glycemia was monitored by measurement of plasma glucose and glycated hemoglobin every four weeks, using a Sigma Trinder assay Kit (Sigma # 315). Blood (non-fasting) was obtained from the tail vein, using heparinized microhematocrit tubes, followed by sedimentation of red blood cells (RBC) in a bench-top microhematocrit centrifuge. A sample of plasma (5 μL) or glucose standard was mixed with 300 μL of reagent in a 96-well microtiter plate. The plate was shaken for 18 min and the absorbance at 490 nm was measured in a Wallac Victor 1420 multilabel counter (Wallac Inc. Gaithersburg, Md.). Glycated hemoglobin (GlcHb) was measured on whole blood by boronate affinity chromatography using a Sigma kit for total glycated hemoglobin (Sigma # 442-B).
Necropsy and tissue sampling. Rats were treated according to the guidelines of the Institutional Animal Care and Use Committee of the University of South Carolina. Blood was drawn from anaesthetized (halothane) rats by heart puncture and transferred into heparinized vacutainer tubes on ice; an aliquot was removed for analysis of glycated hemoglobin. Rats were then killed by over-anesthetization, and liver and kidneys were removed, the kidney decapsulated, and both organs rinsed in PBS buffer, and weighed. The right kidney was cut in half transversely, and one half was removed for fixation for electron and light microscopy. The remainder of the right kidney and the whole left kidney were frozen at −70° C. until processed for isolation of collagen. Abdominal skin (2 cm^2) was also removed, rinsed in phosphate buffered saline (PBS) and stored at −70° C. Blood was separated into plasma and RBC within 30 minutes by centrifugation in a refrigerated benchtop centrifuge. RBCs were lysed in an equal volume of deionized water, and plasma and RBC lysates were stored at −70° C.
Isolation and analysis of collagen. The insoluble fraction of skin collagen was prepared by scraping the skin with a single-edged razor blade to remove hair and adventitious tissue, followed by a series of extractions with 0.5 M NaCl, 0.5 M acetic acid and chloroform/methanol (2:1 v/v), as described previously (Dyer, et al. 1993. J. Clin. Invest. 91:2463-2469). Total renal collagen was prepared from ˜1.5 kidneys by an adaptation of the procedure of Fox et al. (J. Biol. Chem. 256:9313-9315 (1981)). Briefly, kidneys were minced and homogenized with a hand-held glass homogenizer in 10 mL of ice-cold water, containing 1 mM EDTA and 0.05% sodium azide. Remaining intact cells and subcellular organelles were then lysed by addition of another 15 mL of water, followed by incubation for 1 hour at 4° C., then centrifugation of the lysate for 30 minutes at 10,000 rpm at 4° C. in a Beckman (Palo Alto, Calif.) J-21 centrifuge. […]

## Cc1ncc(CO)c(CN)c1O [pyridoxamine]
  CML, CEL or pentosidine content of kidney collagen: not a significant decrease
  gain in kidney weight: partially inhibit the gain in kidney weight
  FL in skin collagen, below untreated diabetic animals: ~12%
  decrease of CML, CEL and fluorescence content of skin collagen toward non-diabetic levels: ~50%
  reduction of half-time for digestion of collagen toward normal: ~25%
  body weight: weighed slightly less than the untreated diabetic group
  CML concentration in skin collagen: 0.092±0.02 mmol/mol lysine
  half-time for pepsin digestion of skin collagen: 350 min
  CEL in renal basement membrane collagen: 0.08 ± 0.008 mmol/mol Lys
  CML in renal basement membrane collagen: 0.23 ±0.03 mmol/mol Lys
  Pentosidine in renal basement membrane collagen: 3.00 ± 0.90 μmol/mol Lys
  decrease in collagen-linked fluorescence toward values in non-diabetic rats: ~40%

## N=C(N)NN [aminoguanidine, reference compound]
  CML, CEL or pentosidine content of kidney collagen: not a significant decrease
  gain in kidney weight: partially inhibit the gain in kidney weight
  FL in skin collagen, below untreated diabetic animals: ~12%
  decrease of CML, CEL and fluorescence content of skin collagen toward non-diabetic levels: ~50%
  reduction of half-time for digestion of collagen toward normal: ~25%
  body weight: weighed slightly less than the untreated diabetic group
  CML concentration in skin collagen: 0.10±0.02 mmol/mol lysine
  half-time for pepsin digestion of skin collagen: 300 min
  CEL in renal basement membrane collagen: 0.07 ± 0.008^C mmol/mol Lys
  CML in renal basement membrane collagen: 0.24 ± 0.05 mmol/mol Lys
  Pentosidine in renal basement membrane collagen: 2.47 ± 0.64^D μmol/mol Lys
  decrease in collagen-linked fluorescence toward values in non-diabetic rats: ~40%
